Data reported in US20060134064A1, “Combined treatment with interferon-alpha and an epidermal growth factor receptor kinase inhibitor” (priority 2004, published 2006).
Where two headings read alike, the source gives them in different places.

Assays:
colorectal cancer = conditions: cited from earlier work
BL-17/2 = test: Crystal violet nuclear staining assay, bladder cancer cell line BL-17/2; type: cell-based; conditions: 2.5 μg/ml erlotinib, 96 h
From the text: (§1) It is known that 40-60% of bladder cancers over-express EGFR which provides an opportunity for targeted therapy.

[1] = tested on: bladder cancer cell lines; conditions: 10 μg/ml erlotinib; 8 of 9 cell lines
Procedure: Three different experimental schedules were performed: Single drug exposure over a range of concentrations of erlotinib, combination with IFN-α, and pre-treatment with IFN-α followed by erlotinib combined with IFN-α.
Cells were grown in 24-well plates and the antiproliferative effect was measured by crystal violet nuclear staining assay.

MGHU3 = test: Crystal violet nuclear staining assay, bladder cancer cell line MGHU3; type: cell-based; conditions: 2.5 μg/ml erlotinib, 96 h
From the text: as §1

BL-17/0/X1 = test: Crystal violet nuclear staining assay, bladder cancer cell line BL-17/0/X1; type: cell-based; conditions: 2.5 μg/ml erlotinib, 96 h
From the text: as §1

HT1376 = test: Crystal violet nuclear staining assay, bladder cancer cell line HT1376; type: cell-based; conditions: 2.5 μg/ml erlotinib, 96 h
From the text: as §1

HER1/EGFR = test: Cell-surface HER1/EGFR expression by immunofluorescent flow cytometry after IFNα treatment; type: cell-based, human; conditions: IFNα 100 IU/mL
Procedure: The cell-surface HER1/EGFR levels at 72 h and 96 h of culture, with or without IFN-α (50 or 100 IU/ml), were measured by immunofluorescent flow cytometry. Cells were seeded in 60×15 mm dishes (FALCON™, BD) and treated with 100 IU/mL of IFN-α. The treated and untreated cells were harvested at different time intervals using 0.02% EDTA in PBS, then washed twice with ice-cold PBS and counted. The mouse monoclonal antibody against the extracellular domain of human HER1/EGFR (Catlog No: MO886, DAKO) diluted 1 in 100 in PBS was added to the cells (1×10^6 cells in 100 μL volume), while an irrelevant IgG 2b was used as the isotype-matched antibody control. After 60 min on ice, cells were washed and incubated with 100 μL of fluorescein-isothiocyanate (FITC)-conjugated goat-anti-mouse IgG (Catlog No: 81-6511, ZYMED), 1 in 200 dilution in PBS, on ice for 30 min in the dark. The cells were then washed again twice and resuspended in 1% formaldehyde in PBS. Cell surface immunofluorescence was analysed on a FACSCalibur (BD) using CELLQuest software equipped with a 5 W argon ion laser tuned to 488 nm at 200 mW. Levels of protein expression were estimated as the geometric mean of fluorescence intensity (MFI) of anti-HER1/EGFR minus that of the isotype-matched antibody control. Ten thousand singlet and viable cells of the individual treated and control samples were measured. Duplicate experiments with triplicate samples were performed for all cells.
Cell-surface HER1/EGFR expression by untreated cell lines: All cell lines were measured first to obtain an untreated level of HER1/EGFR. Cells were harvested after 72 h of culture and measured by flow cytometry. The HER1/EGFR value was calculated as the geometric mean fluorescence intensity of anti-HER1/EGFR detection minus that of isotype control. SW620 cells were HER1/EGFR-negative. Other cell lines including DLD-1, HCT116, HT29, KM12SM, LIM2099, LIM2408, LOVO and SW480 all positively expressed HER1/EGFR.
The relationship between HER1/EGFR expression and IFNα treatment was assessed in all cell lines. Cells were all cultured with or without 100 IU/mL of IFNα (which mimics serum levels in humans given subcutaneous interferon (Robinson S. P., et al. (1990) Breast Cancer Res. Treat.; 5:95-101) for 72 and 96 h. The cell-surface HER1/EGFR expression at 72 h of culture from untreated and treated groups of individual cell lines detected using anti-HER1/EGFR antibody minus isotype control is shown in FIG. 1. IFNα treatment was associated with significant up-regulation of cell-surface HER1/EGFR expression in 7 of 8 HER1/EGFR-positive cell lines, including DLD-1 (HER1/EGFR level (mean plus/minus standard deviation of the mean) treated versus that untreated: 17.89+0.60/10.86+0.51, paired t test, p=0.005; 95% confidence interval of the difference: 4.88−9.16), HCT116 (22.75+0.79/7.80+0.22, p<0.001; 13.52−16.36), HT29 (11.12+0.20/8.58+0.24, p=0.004; 1.82−3.27), LIM2099 (22.19+0.56/12.82+0.52, p=0.001; 7.87−10.86), LIM2408 (22.93+0.53/10.77+0.21, p=0.001; 10.35−13.97), LOVO (14.77+0.34/8.12+0.25, p=0.003; 5.2−8.1), and SW480 (27.09+0.76/14.10+0.33, p=0.002; 10.66−15.32) cells. In contrast, HER1/EGFR expression levels were not increased in KM12SM cells after IFNα treatment. […] Consistently, at 96 h of culture the cell-surface HER1/EGFR expression from untreated and treated groups of individual cell lines followed the same trend. Since up-regulation of HER1/EGFR expression was sustained between 72 and 96 h, we thus chose 72 h for IFNα pretreatment and 96 h for combination treatment introduced below.

For `O=c1[nH]cc(F)c(=O)[nH]1` [5-fluorouracil], which response rates (colorectal cancer; single-agent treatment, advanced colorectal cancer) is on record?
The response rates was “about 10%”.

For `C#Cc1cccc(Nc2ncnc3cc(OCCOC)c(OCCOC)cc23)c1` [erlotinib, [6,7-bis(2-methoxyethoxy)-4-quinazolin-4-yl]-(3-ethynylphenyl)amine], which “growth rate of control cells” value (BL-17/2) is on record?
Its value is under 60%.

What about the “growth rate of control” value [1] of the same compound?
The value was under 60%.

What about the “growth rate of control cells” value (MGHU3) of the same compound?
The value was under 60%.

And the “growth rate of control cells” value (BL-17/0/X1)?
The value was under 60%.

What about the “growth rate of control cells” value (HT1376) of the same compound?
The value was under 60%.

With `O=C1[O][Pt]2([NH][C@@H]3CCCC[C@H]3[NH]2)[O]C1=O` [oxaliplatin] as the compound, how does the response rates (colorectal cancer; combined with 5-FU and leucovorin, first-line treatment for colorectal cancer) read?
Its response rates is 25-40%.

Which “HER1/EGFR level (geometric mean fluorescence intensity minus isotype control), treated” value (HER1/EGFR; DLD-1 cells, 72 h, mean plus/minus SD) does the source give for IFNα here?
Its value is 17.89 ± 0.60.

What about the “HER1/EGFR level (geometric mean fluorescence intensity minus isotype control), treated” value (HER1/EGFR; HCT116 cells, 72 h, mean plus/minus SD) of the same compound?
The value was 22.75 ± 0.79.

What about the “Induction of HER1/EGFR expression by IFNα treatment” value (HER1/EGFR; HER1/EGFR-negative SW620 cells, 72 h) of the same compound?
Its value is “unable to induce HER1/EGFR expression”.

And the “HER1/EGFR level (geometric mean fluorescence intensity minus isotype control), treated” value (HER1/EGFR; HT29 cells, 72 h, mean plus/minus SD)?
The value was 11.12 ± 0.20.

And the “HER1/EGFR expression levels after IFNα treatment” value (HER1/EGFR; KM12SM cells, 72 h)?
Its value is “not increased”.

And the “HER1/EGFR level (geometric mean fluorescence intensity minus isotype control), treated” value (HER1/EGFR; LIM2099 cells, 72 h, mean plus/minus SD)?
Its value is 22.19 ± 0.56.

And the “HER1/EGFR level (geometric mean fluorescence intensity minus isotype control), treated” value (HER1/EGFR; LIM2408 cells, 72 h, mean plus/minus SD)?
The value was 22.93 ± 0.53.

And the “HER1/EGFR level (geometric mean fluorescence intensity minus isotype control), treated” value (HER1/EGFR; LOVO cells, mean plus/minus SD (FIG. 1: LOVO measured at 24 h))?
The value was 14.77 ± 0.34.

And the “HER1/EGFR level (geometric mean fluorescence intensity minus isotype control), treated” value (HER1/EGFR; SW480 cells, 72 h, mean plus/minus SD)?
Its value is 27.09 ± 0.76.
